In PubChem BioAssay AID1963985 (Molecular Pharmacology Branch, DTP, NCI, 2024):

System: 252836-082-R-J2-PDC tumor spheroids, viability
Assay: Anticancer human tumor 252836-082-R-J2-PDC patient-derived head and neck squamous cell carcinoma cell line growth inhibition [PI3K]
Settings: spheroids with HUVEC and MSC; for IC50: curve of first compound; for viability, T/C: stronger effect = lower value; active means viability on the fitted dose curve at most 10% of control; inactive means the rest
Method in brief: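 Tumor cells grown as multi-cell spheroids with HUVEC endothelial cells and MSC fibroblast-like stroma were treated with targeted agents combined with inavolisib, alpelisib, duvelisib or copanlisib. Doses fell in half-log steps from near clinical Cmax, else from 10 microM. Viability was measured.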
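Further: spheroids exposed to agents for seven days before readout.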
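Wherever viability, T/C is given: percent of vehicle DMSO control viability so 100% = untreated growth.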

Cn1cnc2c(F)c(Nc3ccc(Br)cc3Cl)c(C(=O)NOCCO)cc21 + Cc1nc(NC(=O)N2CCCC2C(N)=O)sc1-c1ccnc(C(C)(C)C(F)(F)F)c1
< 9.49 nM: IC50 (second compound 3.16 µM) | IC50 (second compound 10 µM)
active: viability, T/C (second compound 10 µM, first compound 3 µM) 5.98%
> 3000 nM: IC50 (second compound 0.0316 µM)
2410 nM: IC50 (second compound 0.1 µM)
inactive: viability, T/C (second compound 0.0316 µM, first compound 0.00949 µM) 93% | viability, T/C (second compound 0.0316 µM, first compound 0.03 µM) 67.1% | viability, T/C (second compound 0.0316 µM, first compound 0.0949 µM) 83% | viability, T/C (second compound 0.0316 µM, first compound 0.3 µM) 82.7% | viability, T/C (second compound 0.0316 µM, first compound 0.949 µM) 61.2% | viability, T/C (second compound 0.0316 µM, first compound 3 µM) 58.4% | viability, T/C (second compound 0.1 µM, first compound 0.00949 µM) 79.9% | viability, T/C (second compound 0.1 µM, first compound 0.03 µM) 74.5% | viability, T/C (second compound 0.1 µM, first compound 0.0949 µM) 73.3% | viability, T/C (second compound 0.1 µM, first compound 0.3 µM) 85.1% | viability, T/C (second compound 0.1 µM, first compound 0.949 µM) 67.9% | viability, T/C (second compound 0.1 µM, first compound 3 µM) 45.4% | viability, T/C (second compound 0.316 µM, first compound 0.00949 µM) 66.9% | viability, T/C (second compound 0.316 µM, first compound 0.03 µM) 68.1% | viability, T/C (second compound 0.316 µM, first compound 0.0949 µM) 65.2% | viability, T/C (second compound 0.316 µM, first compound 0.3 µM) 68.3% | viability, T/C (second compound 0.316 µM, first compound 0.949 µM) 55.7% | viability, T/C (second compound 0.316 µM, first compound 3 µM) 37.5% | viability, T/C (second compound 1 µM, first compound 0.00949 µM) 61.7% | viability, T/C (second compound 1 µM, first compound 0.03 µM) 50.1% | viability, T/C (second compound 1 µM, first compound 0.0949 µM) 51% | viability, T/C (second compound 1 µM, first compound 0.3 µM) 47.6% | viability, T/C (second compound 1 µM, first compound 0.949 µM) 50.1% | viability, T/C (second compound 1 µM, first compound 3 µM) 28.9% | viability, T/C (second compound 3.16 µM, first compound 0.00949 µM) 45.8% | viability, T/C (second compound 3.16 µM, first compound 0.03 µM) 45.6% | viability, T/C (second compound 3.16 µM, first compound 0.0949 µM) 32.2% | viability, T/C (second compound 3.16 µM, first compound 0.3 µM) 35.8% | viability, T/C (second compound 3.16 µM, first compound 0.949 µM) 25.8% | viability, T/C (second compound 3.16 µM, first compound 3 µM) 13.8% | viability, T/C (second compound 10 µM, first compound 0.00949 µM) 26.7% | viability, T/C (second compound 10 µM, first compound 0.03 µM) 29.4% | viability, T/C (second compound 10 µM, first compound 0.0949 µM) 25.8% | viability, T/C (second compound 10 µM, first compound 0.3 µM) 19.4% | viability, T/C (second compound 10 µM, first compound 0.949 µM) 14.2%
554 nM: IC50 (second compound 1 µM)
1460 nM: IC50 (second compound 0.316 µM)

CCN1CCN(Cc2ccc(Nc3ncc(F)c(-c4cc(F)c5nc(C)n(C(C)C)c5c4)n3)nc2)CC1 + CC(Nc1ncnc2nc[nH]c12)c1cc2cccc(Cl)c2c(=O)n1-c1ccccc1
> 1000 nM: IC50 (second compound 0.0316 µM) | IC50 (second compound 0.1 µM) | IC50 (second compound 0.316 µM) | IC50 (second compound 1 µM) | IC50 (second compound 3.16 µM) | IC50 (second compound 10 µM)
inactive: viability, T/C (second compound 0.0316 µM, first compound 0.00316 µM) 98.7% | viability, T/C (second compound 0.0316 µM, first compound 0.01 µM) 94.4% | viability, T/C (second compound 0.0316 µM, first compound 0.0316 µM) 96.9% | viability, T/C (second compound 0.0316 µM, first compound 0.1 µM) 99% | viability, T/C (second compound 0.0316 µM, first compound 0.316 µM) 89.8% | viability, T/C (second compound 0.0316 µM, first compound 1 µM) 84.6% | viability, T/C (second compound 0.1 µM, first compound 0.00316 µM) 99.2% | viability, T/C (second compound 0.1 µM, first compound 0.01 µM) 93.1% | viability, T/C (second compound 0.1 µM, first compound 0.0316 µM) 103% | viability, T/C (second compound 0.1 µM, first compound 0.1 µM) 108% | viability, T/C (second compound 0.1 µM, first compound 0.316 µM) 95% | viability, T/C (second compound 0.1 µM, first compound 1 µM) 99.6% | viability, T/C (second compound 0.316 µM, first compound 0.00316 µM) 103% | viability, T/C (second compound 0.316 µM, first compound 0.01 µM) 94.3% | viability, T/C (second compound 0.316 µM, first compound 0.0316 µM) 95.7% | viability, T/C (second compound 0.316 µM, first compound 0.1 µM) 96.3% | viability, T/C (second compound 0.316 µM, first compound 0.316 µM) 96.6% | viability, T/C (second compound 0.316 µM, first compound 1 µM) 96.2% | viability, T/C (second compound 1 µM, first compound 0.00316 µM) 92.8% | viability, T/C (second compound 1 µM, first compound 0.01 µM) 93.6% | viability, T/C (second compound 1 µM, first compound 0.0316 µM) 91.9% | viability, T/C (second compound 1 µM, first compound 0.1 µM) 90.6% | viability, T/C (second compound 1 µM, first compound 0.316 µM) 89.2% | viability, T/C (second compound 1 µM, first compound 1 µM) 91.6% | viability, T/C (second compound 3.16 µM, first compound 0.00316 µM) 80% | viability, T/C (second compound 3.16 µM, first compound 0.01 µM) 69.8% | viability, T/C (second compound 3.16 µM, first compound 0.0316 µM) 75.4% | viability, T/C (second compound 3.16 µM, first compound 0.1 µM) 79% | viability, T/C (second compound 3.16 µM, first compound 0.316 µM) 78.9% | viability, T/C (second compound 3.16 µM, first compound 1 µM) 75% | viability, T/C (second compound 10 µM, first compound 0.00316 µM) 56% | viability, T/C (second compound 10 µM, first compound 0.01 µM) 62.8% | viability, T/C (second compound 10 µM, first compound 0.0316 µM) 65% | viability, T/C (second compound 10 µM, first compound 0.1 µM) 67.4% | viability, T/C (second compound 10 µM, first compound 0.316 µM) 69.8% | viability, T/C (second compound 10 µM, first compound 1 µM) 53.6%
